In data set [1] the test system is HeLa cells. Briefly: FACS cell cycle analysis of HeLa cells after 18 h inhibitor treatment. It counts as cell-based, human. To be noted: for cells in G2/M: FACS (control 23%). The protocol: (§1) Hela cells were cultured in DMEM medium supplemented with 10 % (v/v) FCS to 60 % confluency. The culture medium was then exchanged by fresh medium containing different inhibitor or DMSO and the cells placed at 37 °C in 5 % CO2 for 18 h. The final volume of inhibitor dissolved in DMSO in the medium was always equal to or less than 0.1 % (v/v)For wash out experiments, cells were treated as described above. After 18 h cells were washed with phosphate buffered saline (PBS), covered with fresh medium and cultured for another 24 h at 37 °C in 5 % CO2.
HeLa cells were incubated for 18 hours in medium supplemented with various concentrations of either of the three compounds, monastrol or DMSO. Cells were then fixed and analyzed by FACS and immunofluorescence.
(§2) For FACS analysis, cells were scraped off the culture plate after inhibitor treatment or after wash-out and collected by centrifugation in a Heraeus Megafuge 1.0R at 1200 rpm for 5 min. The cell pellet was washed once with 5 ml PBS and then resuspended in 0.5 ml PBS. The cells were fixed by addition of 4 ml 70 % (v/v) ethanol and incubation overnight at -20 °C. Fixed cells were centrifuges at 1200 rpm for 5 min, washed with 5 ml PBS, and resuspended in 1ml PI solution (10 µg/ml propidium iodide, 100 µg/ml RNAse A, 0.05 % Triton X100 in PBS). After 30 min at 37 °C in the dark, cells were analyzed by fluorescence-activated cell sorting (FACS).

Data set [2] deals with T1, Eg5 (Xenopus laevis, UniProt P28025).
T1 construct: Xenopus laevis Eg5 corresponding to amino acids 1 to 487; made in house; host or cells: E. coli M15(pREP4)
T1 sequence (P28025 1-487): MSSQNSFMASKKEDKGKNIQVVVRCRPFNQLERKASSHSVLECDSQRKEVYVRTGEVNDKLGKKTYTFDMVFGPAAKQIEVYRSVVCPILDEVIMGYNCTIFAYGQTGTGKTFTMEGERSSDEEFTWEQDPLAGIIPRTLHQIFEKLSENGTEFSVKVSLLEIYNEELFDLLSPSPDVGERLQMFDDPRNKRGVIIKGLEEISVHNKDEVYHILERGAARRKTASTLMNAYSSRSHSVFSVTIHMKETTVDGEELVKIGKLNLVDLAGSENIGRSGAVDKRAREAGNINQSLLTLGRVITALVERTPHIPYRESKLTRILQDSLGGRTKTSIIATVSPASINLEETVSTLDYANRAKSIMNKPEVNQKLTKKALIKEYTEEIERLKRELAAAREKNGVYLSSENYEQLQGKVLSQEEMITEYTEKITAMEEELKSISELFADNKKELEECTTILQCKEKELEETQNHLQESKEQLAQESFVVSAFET
The data set can be described thus: Microtubule-stimulated ATPase activity of Eg5 (EnzChek Phosphate Assay), IC50 determination. As to conditions: for potency as inhibitor of Eg5 compared to monastrol: ratio of IC50 values versus monastrol. Type of data set: biochemical. As to the method:
The protein was expressed in E. coli M15(pREP4) for 5 h at 18 °C in LB containing 1 mM isopropylthio-β-D-galactopyranoside (IPTG), 100 µg/ml ampicillin, 25 µg/ml kanamycin, and 2% (v/v) ethanol. The harvested cells were lysed in buffer A (50 mM KPi, 100 mM NaCl, 0.1 mM MgATP protease inhibitors (Roche), pH 7.0) with 5 mM mercaptoethanol (ME). The clarified lysate was loaded onto a HIS-Select Cobalt Affi Gel column (Sigma), washed with buffer A supplemented with 10 mM imidazole, 2 mM ME, 10 % (w/v) glycerol, and eluted with 150 mM imidazole, 50 mM KCI, 10 % (w/v) glycerol, 10 mM ME, pH 7.3. The buffer was exchanged to 50 mM 3-(N-morpholino)propanesulfonic acid/KOH, 50 mM KCI, 1 mM MgCl2, 1 mM EGTA, 10 mM ME, 20 % (w/v) glycerol, pH 7.0 by dialysis. The protein concentration was adjusted to 2 mg/ml (measured by a Bradford assay using bovine serum albumin (BSA) as standard). Eg5487H was frozen in liquid ethane and stored in liquid nitrogen.
Polymerized microtubules were then stabilized by addition of 1 µl 10 mM paclitaxel (Sigma) in DMSO and incubated at 37 °C for another 20 minutes. The suspension was centrifuged at 70000 rpm at 30 °C for 30 minutes in a TLA100 rotor (Beckman). The resulting microtubule pellet was resuspended in 60 µl assay buffer (10 mM imidazole/acetate, 5 mM K-acetate, 2 mM EGTA and 4 mM Mg-acetate, pH 6.8.) supplemented with 20 µM paclitaxel at 37 °C. This microtubule suspension was stored at room temperature. The final concentration was 80 µM polymerized tubulin as determined by Bradford using BSA as a standard.
Final concentrations were 40 nM Eg5487H, 4 µM microtubules (tubulin dimer concentration as determined by Bradford using BSA as standard), and 1 mM MgATP. The ATPase activity was measured as an increase of absorbance at 365 nm within 2 h at room temperature. 1 % (v/v) inhibitor in DMSO at different concentrations (or 1 % (v/v) DMSO as a control) was added at the start of the experiment. At least 4 measurements were performed per condition and the results were then averaged. The microtubule-stimulated activity of Eg5487H was obtained by subtracting background activity (measured with microtubules only in the absence of Eg5487H) from measurements containing Eg5487H and microtubules. The IC50 was determined by assuming non-competitive enzyme inhibition and fitting the theoretically expected dependence of the enzym activity on the inhibitor concentration to the experimental microtubule-stimulated ATPase activities. The equation used for the fit was v = vmax * IC50 / ([inhibitor] + IC50) + vres with v being the measured relative ATPase rate, vmax being the maximum ATPase rate and vres being a residual activity at high inhibitor concentration.

Data set [3] concerns Xenopus egg extract. Briefly: Spindle assembly in Xenopus egg extracts. Set-up: species or system Xenopus laevis. The protocol: Cytostatic factor (CSF)-arrested Xenopus laevis egg extracts were prepared as described previously. Spindle assembly experiments were performed in cycled extracts with sperm nuclei and tetramethylrhodamine labelled tubulin as described. 1 % (v/v) (or less) inhibitor dissolved in DMSO was added to the extract prior to spindle assembly. As control 1% DMSO was added to the extract. Spindles were fixed and centrifuged onto coverslips. The DNA was stained with DAPI. Structures were then visualized by epi-fluorescence microscopy (Zeiss Axiovert 135 equipped with a Roper CoolSnap HQ camera). Spindles and aberrant microtubule structures were then counted.

The test system of data set [4] is HeLa cells. The data set can be described thus: Wash-out experiment in HeLa cells (18 h treatment, 24 h fresh medium). It counts as cell-based, human. As to conditions: 24 h in fresh medium. The protocol:
as §1, §2
One useful characteristic of monastrol is that is non-toxic for the cells when applied transiently; once washed out cells resume mitosis. […]

[5] abbreviates: microtubule-stimulated ATPase activity, 40 nM Eg5487H, 4 µM microtubules, 1 mM MgATP, read-out: IC50.
The mark [6] stands for this setting: 10 µM added to Xenopus egg extract.

The structures appear in SMILES notation. Read-outs that look alike come from different tables or passages of the source.

For orientation: IC50 means the concentration needed to halve the response being measured. On to `O=C1CCCC2=C1C(c1cccc(O)c1)NC(=S)N2` (stereo not drawn) [Example 1, 4-(3-Hydroxyphenyl)-5-oxo-3,4,5,6,7,8-hexahydroquinazoline-2(1H)-thione], for which the “cells in G2/M” value in data set [1] (10 µM) is listed as 77%. The concentration for half-maximal inhibition (IC50) in data set [2] (setting [5]) was found to be 2000 nM. Also, the “potency as inhibitor of Eg5 compared to monastrol” value in data set [2] is “more than ten times more potent”. Further, in data set [3] (setting [6]), the bipolar spindle formation result is recorded as “inhibited bipolar spindle formation”.
The matching figures for `Oc1cccc(C2NC(=S)NC3=C2C(O)CCC3)c1` (stereo not drawn) [Example 3, 4-(3-Hydroxyphenyl)-5-hydroxy-3,4,5,6,7,8-hexahydroquinazoline-2(1H)-thione]: 77%, 2000 nM, “more than ten times more potent” and “inhibited bipolar spindle formation”.
On to `CC1(C)CC(=O)C2=C(C1)NC(=S)NC2c1cccc(O)c1` (stereo not drawn) [Example 2, 7,7-Dimethyl-4-(3-hydroxyphenyl)-5-oxo-3,4,5,6,7,8-hexahydroquinazoline-2(1H)-thione], for which the cell cycle distribution entry in data set [1] (0.1 µM, FACS) is “No cell cycle distribution abnormalities”. In addition, the “cells in G2/M” value in data set [1] (0.5 µM) is 47%. For the same compound, in data set [1] (1 µM), the “cells in G2/M” value stood at 75%. In data set [2], the half-inhibitory concentration (IC50) is 200 nM and the “potency as inhibitor of Eg5 compared to monastrol” value is “more than 100 times”. Also, in data set [3] (1 µM added to Xenopus egg extract), the bipolar spindle formation entry is given as “inhibited bipolar spindle formation”.
On to `CCOC(=O)C1=C(C)NC(=S)NC1c1cccc(O)c1` (stereo not drawn) [monastrol, 4-(3-hydroxyphenyl)-5-ethoxycarbonyl-6-methyl-3,4-dihydropyrimidin-2(1H), reference compound], for which, in data set [4], the “toxicity for the cells when applied transiently” value is recorded as “non-toxic”. In addition, the “cells in G2/M” value is given as 31% in data set [1] (10 µM) and 74% in data set [1] (100 µM). Moreover, the half-maximal inhibitory concentration (IC50) in data set [2] was 30000 nM.

The record behind these values is patent publication EP1655289A1, “Quinazoline derivatives, process for their preparation, their use as antimitotics and pharmaceutical compositions comprising said derivatives” (EMBL, priority 2004, dated 2006).
